{"source": "patent US4904585A", "about": "“Novel antibiotic NK84-0218 and process for the production of the same” (Nippon Kayaku Kabushiki Kaisha, priority 1984, dated 1990)", "key": {"[1]": {"system": "Bacillus polymyxa IAM 1210", "assay": "Antibacterial spectrum, agar plate dilution method", "format": "cell-based", "settings": "Paenibacillus polymyxa, IAM1210, 0.5% peptone agar, read-out: Minimum inhibitory concentration"}, "[2]": {"system": "Salmonella paratyphi 1015 (MS-1)", "assay": "Antibacterial spectrum, agar plate dilution method", "format": "cell-based", "settings": "Salmonella enterica, read-out: Minimum inhibitory concentration"}, "Bacillus cereus IAM 1072": {"system": "Bacillus cereus IAM 1072", "assay": "Antibacterial spectrum, agar plate dilution method", "format": "cell-based", "settings": "IAM1072, 0.5% peptone agar, read-out: Minimum inhibitory concentration"}, "[3]": {"system": "Proteus morganii IFO 3168", "assay": "Antibacterial spectrum, agar plate dilution method", "format": "cell-based", "settings": "Morganella morganii, IFO3168, 0.5% peptone agar, read-out: Minimum inhibitory concentration"}, "[4]": {"system": "Mycobacterium smegmatis ATCC 607", "assay": "Antibacterial spectrum, agar plate dilution method", "format": "cell-based", "settings": "Mycolicibacterium smegmatis, ATCC607, 0.5% peptone agar, read-out: Minimum inhibitory concentration"}, "Acute toxicity on mice": {"assay": "Acute toxicity on mice", "format": "in vivo"}, "[5]": {"system": "Klebsiella pneumoniae PCI 602", "assay": "Antibacterial spectrum, agar plate dilution method", "format": "cell-based", "settings": "PCI602, 0.5% peptone agar, read-out: Minimum inhibitory concentration"}, "gram-negative bacteria": {"system": "gram-negative bacteria", "assay": "Antibacterial spectrum, summary in words", "format": "cell-based", "settings": "agar plate dilution method"}, "[6]": {"system": "Micrococcus flavus ATCC 10240", "assay": "Antibacterial spectrum, agar plate dilution method", "format": "cell-based", "settings": "ATCC10240, 0.5% peptone agar, read-out: Minimum inhibitory concentration"}, "Escherichia coli NIHJ": {"system": "Escherichia coli NIHJ", "assay": "Antibacterial spectrum, agar plate dilution method", "format": "cell-based", "settings": "0.5% peptone agar, read-out: Minimum inhibitory concentration"}, "Escherichia coli K-12": {"system": "Escherichia coli K-12", "assay": "Antibacterial spectrum, agar plate dilution method", "format": "cell-based", "settings": "K12, 0.5% peptone agar, read-out: Minimum inhibitory concentration"}, "HeLa cell": {"system": "HeLa cell", "assay": "Anti-HeLa cell activity", "format": "cell-based", "settings": "for Cells/plate: 72 hours after the addition", "description": "*The number of cells 72 hours after the addition of NK840218."}, "[7]": {"system": "Candida albicans NIH 3147", "assay": "Antibacterial spectrum, agar plate dilution method", "format": "cell-based", "settings": "NIH3147, 0.5% peptone agar, read-out: Minimum inhibitory concentration"}, "Solubility in solvents": {"assay": "Solubility in solvents", "format": "physicochemical", "excerpt": "In order to isolate the antibiotic of the present invention, the culturing broth is purified in a manner conventionally used in isolating a metabolite of a microorganism from its culturing broth. […] For example, the culturing broth is adjusted to a pH value of 3.5 to 6.5, preferably 4 to 4.5, adsorbed by powdery active carbon, washed with water and eluted with a 50% aqueous acetone and the active fraction thus obtained is concentrated and lyophilized to give a brown crude powder. Then this powder is dissolved in methanol and insoluble substances are removed. The soluble portion is dried, dissolved in water, adsorbed by an active carbon column, washed with water and subjected to acetone linear concentration gradient elution with water and 50% aqueous acetone. The obtained active fraction is concentrated and lyophilized. The pale brown powder containing NK84-0218 thus obtained is dissolved in a small amount of water and packed into an Avicel column. Then it is developed with an aqueous alcohol and eluted with increasing the water content stepwise. The active fractions thus obtained are combined, concentrated and lyophilized. Subsequently the obtained powder is dissolved in a small amount of water and packed into an SP Sephadex® C-25(Na^+) column previously equilibrated with 0.02M sodium chloride. The active fractions eluted with 0.02M sodium chloride are desalted on active carbon to give a colorless powder. The powder thus purified is treated with water or an aqueous alcohol to give NK84-0218 in the form of colorless needles. The titer during the cultivation is determined by plate cup assay with Bacillus subtilis PCI 219."}, "gram-positive bacteria": {"system": "gram-positive bacteria", "assay": "Antibacterial spectrum, summary in words", "format": "cell-based", "settings": "S. aureus FDA 209P, Bacillus including B. subtilis PCI 219 and B. cereus IAM 1072, Micrococcus flavus ATCC 10240"}, "[8]": {"system": "Proteus mirabilis IFO 3849", "assay": "Antibacterial spectrum, agar plate dilution method", "format": "cell-based", "settings": "IFO3849, 0.5% peptone agar, read-out: Minimum inhibitory concentration"}, "[9]": {"system": "Salmonella enteritidis G14 (MS-1)", "assay": "Antibacterial spectrum, agar plate dilution method", "format": "cell-based", "settings": "Salmonella enterica, 0.5% peptone agar, read-out: Minimum inhibitory concentration"}, "[10]": {"system": "herpes simplex virus-I (HSV-I)", "assay": "Antiviral activity, cytopathic effect of HSV-I on Vero cells", "format": "cell-based", "description": "A medium containing a definite amount of NK84-0218 and herpes simplex virus-I (HSV-I) 5-10 TC ID50 are added onto a single layer of vero cells in a microplate having 96 wells and cultured in a 5% by volume carbon dioxide incubator at 37° C. for 96 to 120 hours. Then the antiviral activity of the test substance is determined by microscopically observing the cytopathic effect (CPE) of the HSV-I on the Vero cells. The inhibition is taken as effective when no CPE is observed in a well. For example, when CPE is observed in one well among ten at the same concentration, the inhibition ratio is 90%."}, "[11]": {"system": "Bacillus subtilis ATCC 6633", "assay": "Antibacterial spectrum, agar plate dilution method", "format": "cell-based", "settings": "ATCC6633, 0.5% peptone agar, read-out: Minimum inhibitory concentration"}, "[12]": {"system": "Bacillus licheniformis IFO 12107", "assay": "Antibacterial spectrum, agar plate dilution method", "format": "cell-based", "settings": "IFO12107, 0.5% peptone agar, read-out: Minimum inhibitory concentration"}, "[13]": {"system": "Micrococcus luteus ATCC 9341", "assay": "Antibacterial spectrum, agar plate dilution method", "format": "cell-based", "settings": "ATCC9341, 0.5% peptone agar, read-out: Minimum inhibitory concentration"}, "[14]": {"system": "Bacillus subtilis PCI 219", "assay": "Antibacterial spectrum, agar plate dilution method", "format": "cell-based", "settings": "PCI219, 0.5% peptone agar, read-out: Minimum inhibitory concentration"}, "[15]": {"system": "Salmonella typhi 901 (MS-1)", "assay": "Antibacterial spectrum, agar plate dilution method", "format": "cell-based", "settings": "Salmonella enterica, read-out: Minimum inhibitory concentration"}, "[16]": {"system": "Bacillus megaterium ATCC 14945", "assay": "Antibacterial spectrum, agar plate dilution method", "format": "cell-based", "settings": "Priestia megaterium, ATCC14945, 0.5% peptone agar, read-out: Minimum inhibitory concentration"}, "[17]": {"system": "Serratia marcescens GM 6484", "assay": "Antibacterial spectrum, agar plate dilution method", "format": "cell-based", "settings": "GM6484, 0.5% peptone agar, read-out: Minimum inhibitory concentration"}, "[18]": {"system": "Proteus vulgaris IFO 3045", "assay": "Antibacterial spectrum, agar plate dilution method", "format": "cell-based", "settings": "IFO3045, 0.5% peptone agar, read-out: Minimum inhibitory concentration"}, "[19]": {"system": "Pseudomonas aernginosa IFO 3445", "assay": "Antibacterial spectrum, agar plate dilution method", "format": "cell-based", "settings": "IFO3445, 0.5% peptone agar, read-out: Minimum inhibitory concentration"}, "[20]": {"system": "Enterobacter aerogenes ATCC 13048 (MS-1)", "assay": "Antibacterial spectrum, agar plate dilution method", "format": "cell-based", "settings": "Klebsiella aerogenes, ATCC13048, 0.5% peptone agar, read-out: Minimum inhibitory concentration"}, "[21]": {"system": "Staphylococcus aureus EDA 209P", "assay": "Antibacterial spectrum, agar plate dilution method", "format": "cell-based", "settings": "0.5% peptone agar, read-out: Minimum inhibitory concentration"}}}
{"compound": "Nc1ncnc2c1ncn2C1OC(CO)C1CO", "note": "(centres unmarked) [NK84-0218]", "values": [{"measurement": "MIC", "setting": "[1]", "result": "< 0.1", "unit": "µg/mL"}, {"measurement": "MIC", "setting": "[2]", "result": "> 100", "unit": "µg/mL"}, {"measurement": "MIC", "setting": "Bacillus cereus IAM 1072", "result": "< 0.1", "unit": "µg/mL"}, {"measurement": "MIC", "setting": "[3]", "result": "> 100", "unit": "µg/mL"}, {"measurement": "MIC", "setting": "[4]", "result": "> 100", "unit": "µg/mL"}, {"measurement": "acute toxicity compared with various known nucleoside antibiotics", "setting": "Acute toxicity on mice; i.v.", "result": "lower than those of various known nucleoside antibiotics"}, {"measurement": "LD50", "setting": "Acute toxicity on mice; mouse, in vivo, iv", "result": "≥ 100", "unit": "mg/kg"}, {"measurement": "MIC", "setting": "[5]", "result": "> 100", "unit": "µg/mL"}, {"measurement": "effect on gram-negative bacteria", "setting": "gram-negative bacteria", "result": "no effect"}, {"measurement": "MIC", "setting": "[6]", "result": 6.25, "unit": "µg/mL"}, {"measurement": "MIC", "setting": "Escherichia coli NIHJ", "result": "> 100", "unit": "µg/mL"}, {"measurement": "MIC", "setting": "Escherichia coli K-12", "result": "> 100", "unit": "µg/mL"}, {"measurement": "Cells/plate", "setting": "HeLa cell; 0.39 μg/ml", "result": "14.35 × 10^5"}, {"measurement": "Cells/plate", "setting": "HeLa cell; 1.56 μg/ml", "result": "14.64 × 10^5"}, {"measurement": "Cells/plate", "setting": "HeLa cell; 6.25 μg/ml", "result": "13.91 × 10^5"}, {"measurement": "Cells/plate", "setting": "HeLa cell; 25 μg/ml", "result": "13.47 × 10^5"}, {"measurement": "Cells/plate", "setting": "HeLa cell; 100 μg/ml", "result": "2.78 × 10^5"}, {"measurement": "inhibition at 0.39 µg/mL", "setting": "HeLa cell; Homo sapiens, HeLa, 0.39 μg/ml, 72 hours, read-out: Inhibition ratio", "result": 3.58, "unit": "%"}, {"measurement": "inhibition at 1.56 µg/mL", "setting": "HeLa cell; Homo sapiens, HeLa, 1.56 μg/ml, 72 hours, read-out: Inhibition ratio", "result": 1.26, "unit": "%"}, {"measurement": "inhibition at 6.25 µg/mL", "setting": "HeLa cell; Homo sapiens, HeLa, 6.25 μg/ml, 72 hours, read-out: Inhibition ratio", "result": 6.94, "unit": "%"}, {"measurement": "inhibition at 25 µg/mL", "setting": "HeLa cell; Homo sapiens, HeLa, 25 μg/ml, 72 hours, read-out: Inhibition ratio", "result": 10.2, "unit": "%"}, {"measurement": "inhibition at 100 µg/mL", "setting": "HeLa cell; Homo sapiens, HeLa, 100 μg/ml, 72 hours, read-out: Inhibition ratio", "result": 93.4, "unit": "%"}, {"measurement": "IC50", "setting": "HeLa cell; Homo sapiens, HeLa cell, 72 hours", "result": "~47", "unit": "µg/mL"}, {"measurement": "MIC", "setting": "[7]", "result": "> 100", "unit": "µg/mL"}, {"measurement": "Solubility", "setting": "Solubility in solvents; in dimethyl sulfoxide", "result": "soluble"}, {"measurement": "Solubility", "setting": "Solubility in solvents; in ethanol", "result": "soluble"}, {"measurement": "Solubility", "setting": "Solubility in solvents; in methanol", "result": "soluble"}, {"measurement": "Solubility", "setting": "Solubility in solvents; in other organic solvents such as propanol, acetone, ethyl acetate, ether and benzene", "result": "hardly or not soluble"}, {"measurement": "Solubility", "setting": "Solubility in solvents; in water", "result": "soluble"}, {"measurement": "inhibiting the growth of gram-positive bacteria", "setting": "gram-positive bacteria", "result": "intense effects of inhibiting the growth"}, {"measurement": "MIC", "setting": "[8]", "result": "> 100", "unit": "µg/mL"}, {"measurement": "MIC", "setting": "[9]", "result": "> 100", "unit": "µg/mL"}, {"measurement": "antiviral activity (in words)", "setting": "[10]", "result": "exhibits an antiviral activity"}, {"measurement": "MIC", "setting": "[11]", "result": "< 0.1", "unit": "µg/mL"}, {"measurement": "MIC", "setting": "[12]", "result": 6.25, "unit": "µg/mL"}, {"measurement": "MIC", "setting": "[13]", "result": 3.12, "unit": "µg/mL"}, {"measurement": "MIC", "setting": "[14]", "result": "< 0.1", "unit": "µg/mL"}, {"measurement": "MIC", "setting": "[15]", "result": "> 100", "unit": "µg/mL"}, {"measurement": "MIC", "setting": "[16]", "result": 1.56, "unit": "µg/mL"}, {"measurement": "MIC", "setting": "[17]", "result": "> 100", "unit": "µg/mL"}, {"measurement": "MIC", "setting": "[18]", "result": "> 100", "unit": "µg/mL"}, {"measurement": "MIC", "setting": "[19]", "result": "> 100", "unit": "µg/mL"}, {"measurement": "MIC", "setting": "[20]", "result": "> 100", "unit": "µg/mL"}, {"measurement": "MIC", "setting": "[21]", "result": "< 0.1", "unit": "µg/mL"}]}
